Experimental data as given in ChEMBL document CHEMBL1201862, “PubChem BioAssay data set” (2004).
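96-well plates; 48 h exposure; 5 concentrations. Endpoints by linear interpolation between flanking doses. Not reached: highest tested concentration assigned. GI50 = concentration required for 50% inhibition of growth.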 Active and inactive are the calls of the source. No stated cut-off is given here; in the data, active = GI50 up to about 1.1 µM and inactive = higher.

Columns and labels:
Experiment in all cases: growth of human tumour cells (NCI), 48 h
SN12C = system: SN12C
MOLT-4 = system: MOLT-4
NCI-H460 = system: NCI-H460
A498 = system: A498
UO-31 = system: UO-31
HCT-15 = system: HCT-15
OVCAR-4 = system: OVCAR-4
786-0 = system: 786-0
SNB-19 = system: SNB-19
SF-268 = system: SF-268
NCI-H226 = system: NCI-H226
A549 = system: A549
LOX IMVI = system: LOX IMVI
UACC-62 = system: UACC-62
COLO 205 = system: COLO 205
SF-295 = system: SF-295
RXF 393 = system: RXF 393
RPMI-8226 = system: RPMI-8226

| SMILES | GI50 (SN12C) | GI50 (MOLT-4) | GI50 (NCI-H460) | GI50 (A498) | GI50 (UO-31) | GI50 (HCT-15) [µM] | GI50 (OVCAR-4) | GI50 (786-0) | GI50 (SNB-19) | GI50 (SF-268) | GI50 (NCI-H226) | GI50 (A549) | GI50 (LOX IMVI) | GI50 (UACC-62) | GI50 (COLO 205) | GI50 (SF-295) | GI50 (RXF 393) | GI50 (RPMI-8226) |
| --- | --- | --- | --- | --- | --- | --- | --- | --- | --- | --- | --- | --- | --- | --- | --- | --- | --- | --- |
| COc1ccc(-c2cc(O)c3cc4c(cc3n2)OCO4)cc1 | > 100 µM (inactive) | > 100 µM (inactive) | > 100 µM (inactive) | > 100 µM (inactive) | > 100 µM (inactive) | > 100 | > 100 µM (inactive) | 73.1 µM (inactive) | 55.5 µM (inactive) | > 100 µM (inactive) | 29 µM (inactive) | > 100 µM (inactive) | > 100 µM (inactive) | > 100 µM (inactive) | > 100 µM (inactive) | 63.4 µM (inactive) | 38.4 µM (inactive) | > 100 µM (inactive) |
| CC(=O)Oc1ccc(CO)cc1OC(C)=O | > 100 µM (inactive) | > 100 µM (inactive) | > 100 µM (inactive) | > 100 µM (inactive) | > 100 µM (inactive) | > 100 | > 100 µM (inactive) | > 100 µM (inactive) | > 100 µM (inactive) | > 100 µM (inactive) | > 100 µM (inactive) | > 100 µM (inactive) | > 100 µM (inactive) | > 100 µM (inactive) | > 100 µM (inactive) | > 100 µM (inactive) | > 100 µM (inactive) | 51.6 µM (inactive) |
| CC(N)Cc1ccc(F)cc1 (stereo not drawn) | > 100 µM (inactive) | > 100 µM (inactive) | > 100 µM (inactive) | > 100 µM (inactive) | > 100 µM (inactive) | > 100 | > 100 µM (inactive) | > 100 µM (inactive) | > 100 µM (inactive) | > 100 µM (inactive) | > 100 µM (inactive) | > 100 µM (inactive) | > 100 µM (inactive) | > 100 µM (inactive) | > 100 µM (inactive) | > 100 µM (inactive) | > 100 µM (inactive) | > 100 µM (inactive) |
| O=C1NCCS(=O)(=O)N[C@@H](CC2=CC=CCC2)C(=O)N2CCCC12 (stereo partly drawn) | > 100 µM (inactive) | > 100 µM (inactive) | > 100 µM (inactive) | > 100 µM (inactive) | > 100 µM (inactive) | > 100 | > 100 µM (inactive) | > 100 µM (inactive) | > 100 µM (inactive) | > 100 µM (inactive) | > 100 µM (inactive) | > 100 µM (inactive) | > 100 µM (inactive) | > 100 µM (inactive) | > 100 µM (inactive) | > 100 µM (inactive) | > 100 µM (inactive) | > 100 µM (inactive) |
| CC1OC(n2cc(F)c(=O)[nH]c2=O)C=CC1=O (stereo not drawn) | 16.4 µM (inactive) | 24.2 µM (inactive) | 21.6 µM (inactive) | 16.7 µM (inactive) | 16.1 µM (inactive) | 20.3 | 18.1 µM (inactive) | 15.9 µM (inactive) | 17.4 µM (inactive) | 19.6 µM (inactive) | 24.7 µM (inactive) | > 100 µM (inactive) | 15 µM (inactive) | 17.7 µM (inactive) | 32.2 µM (inactive) | 17.3 µM (inactive) | 15.5 µM (inactive) | 21 µM (inactive) |
| CSC1NC=Nc2c1sc(=S)n2-c1ccccc1 (stereo not drawn) | > 100 µM (inactive) | > 100 µM (inactive) | > 100 µM (inactive) | > 100 µM (inactive) | > 100 µM (inactive) | > 100 | 89.1 µM (inactive) | > 100 µM (inactive) | > 100 µM (inactive) | > 100 µM (inactive) | > 100 µM (inactive) | > 100 µM (inactive) | > 100 µM (inactive) | > 100 µM (inactive) | > 100 µM (inactive) | > 100 µM (inactive) | > 100 µM (inactive) | > 100 µM (inactive) |
